Laboratory results reported in ChEMBL document CHEMBL4673347, “Discovery of new thieno[2,3-d]pyrimidine and thiazolo[5,4-d]pyrimidine derivatives as orally active phosphoinositide 3-kinase inhibitors” (Bioorg Med Chem, 2021).
Values after ≈ are worked out from the molar mass of the structure shown. Active and inactive are the calls of the source. The rule behind the calls is not given here.

What was measured:
[1] = biological target: Phosphatidylinositol 4,5-bisphosphate 3-kinase catalytic subunit beta isoform (Homo sapiens, UniProt P42338); test: Inhibition of recombinant human PI3Kbeta using PIP2 as substrate by ADP-Glo reagent based assay
SGC-7901 = test: Antiproliferative activity against human SGC-7901 cells assessed as reduction in cell viability incubated for 72 hrs measured after 4 hrs of MTT addition by MTT assay; format: functional, cell-based
A549 = test: Antiproliferative activity against human A549 cells assessed as reduction in cell viability incubated for 72 hrs measured after 4 hrs of MTT addition by MTT assay; format: functional, cell-based
[2] = biological target: Phosphatidylinositol 4,5-bisphosphate 3-kinase catalytic subunit delta isoform (Homo sapiens, UniProt O00329); test: Inhibition of recombinant human full length His-tagged PI3Kdelta expressed in baculovirus expression system using PIP2 as substrate by ADP-Glo reagent based assay
MG-63 = test: Antiproliferative activity against human MG-63 cells assessed as reduction in cell viability incubated for 72 hrs measured after 4 hrs of MTT addition by MTT assay; format: functional, cell-based
[3] = Volume of distribution at steady state in ICR mouse at 4 mg/kg, iv measured upto 24 hrs by LC-MS/MS analysis; format: ADME, organism-based; conditions: in vivo, read-out: Vdss
HGC-27 [4] = test: Inhibition of PI3K signalling in human HGC-27 cells assessed as reduction in 4E-BP1 phosphorylation incubated for 3 hrs by Western blot analysis; format: cell-based; conditions: dose 20-1000 nM
HGC-27 [5] = test: Induction of cell cycle arrest in human HGC-27 cells assessed as G0/G1 phase incubated for 24 hrs by propidium iodide staining based flow cytometry analysis; format: functional; conditions: dose 20-500 nM
MGC-803 = test: Antiproliferative activity against human MGC-803 cells assessed as reduction in cell viability incubated for 72 hrs measured after 4 hrs of MTT addition by MTT assay; format: functional, cell-based
[6] = Clearance in ICR mouse at 4 mg/kg, iv measured upto 24 hrs by LC-MS/MS analysis; format: ADME, organism-based; conditions: in vivo
HGC-27 [7] = test: Induction of apoptosis in human HGC-27 cells assessed as viable cells at 500 nM incubated for 24 hrs by annexin V-FITC and propidium iodide based staining based flow cytometry analysis (reference value: 83.7 %); format: functional; conditions: read-out: Activity
[8] = Apparent permeability across apical to basolateral side in human Caco-2 cells; format: ADME, cell-based
Mus musculus [9] = test: In vivo inhibition of PI3Kalpha in BALB/c mouse assessed as increase in plasma insulin level at 40 mg/kg, po measured after 30 mins by ELISA; format: functional, organism-based
HGC-27 [10] = test: Inhibition of PI3K signalling in human HGC-27 cells assessed as reduction in S6RP S235/236 phosphorylation incubated for 3 hrs by Western blot analysis; format: cell-based; conditions: dose 20-1000 nM
HGC-27 [11] = test: Antiproliferative activity against human HGC-27 cells assessed as reduction in cell viability incubated for 72 hrs measured after 4 hrs of MTT addition by MTT assay; format: functional, cell-based
NCI-H358 = test: Antiproliferative activity against human NCI-H358 cells assessed as reduction in cell viability incubated for 72 hrs measured after 4 hrs of MTT addition by MTT assay; format: functional, cell-based
[12] = Kinetic solubility of compound in PBS buffer at pH 7.4; format: physicochemical; conditions: read-out: Kinetic_solubility
[13] = biological target: Phosphatidylinositol 4,5-bisphosphate 3-kinase catalytic subunit alpha isoform (Homo sapiens, UniProt P42336); test: Inhibition of recombinant human full length His-tagged PI3Kalpha expressed in baculovirus expression system using PIP2 as substrate by ADP-Glo reagent based assay
HGC-27 [14] = test: Induction of apoptosis in human HGC-27 cells assessed as necrotic cells at 500 nM incubated for 24 hrs by annexin V-FITC and propidium iodide based staining based flow cytometry analysis (reference value: 1.95 %); format: functional
HGC-27 [15] = test: Induction of apoptosis in human HGC-27 cells assessed as early apoptotic cells at 500 nM incubated for 24 hrs by annexin V-FITC and propidium iodide based staining based flow cytometry analysis (reference value: 6.22 %); format: functional
HGC-27 [16] = test: Antitumor activity against human HGC-27 cells xenografted in BALB/c mouse assessed as tumor growth inhibition at 40 mg/kg, po administered for 25 days and measured on day 25 relative to control; format: functional; conditions: HGC-27, po, 600 h, time 25 day, read-out: TGI
MKN-45 = test: Antiproliferative activity against human MKN-45 cells assessed as reduction in cell viability incubated for 72 hrs measured after 4 hrs of MTT addition by MTT assay; format: functional, cell-based
HGC-27 [17] = test: Antitumor activity against human HGC-27 cells xenografted in BALB/c mouse assessed as reduction in Ki67 expression at 20 to 40 mg/kg, po administered for 25 days and measured on day 25 by […] immunohistochemistry; format: functional, organism-based; conditions: dose 20-40 mg/kg, time 25.0 day
NCI-H23 = test: Antiproliferative activity against human NCI-H23 cells assessed as reduction in cell viability incubated for 72 hrs measured after 4 hrs of MTT addition by MTT assay; format: functional, cell-based
[18] = Half life in ICR mouse at 40 mg/kg, po measured upto 24 hrs by LC-MS/MS analysis; format: ADME, organism-based; conditions: in vivo
Mus musculus [19] = test: In vivo inhibition of PI3Kalpha in BALB/c mouse assessed as increase in plasma glucose level at 40 mg/kg, po measured after 30 mins; format: functional, organism-based
[20] = Antiproliferative activity against human KATO III stomach cancer cell line cells assessed as reduction in cell viability incubated for 72 hrs measured after 4 hrs of MTT addition by MTT assay; format: functional
[21] = Oral bioavailability in ICR mouse at 40 mg/kg measured upto 24 hrs by LC-MS/MS analysis; format: ADME, organism-based; conditions: in vivo
SNU-638 = test: Antiproliferative activity against human SNU-638 cells assessed as reduction in cell viability incubated for 72 hrs measured after 4 hrs of MTT addition by MTT assay; format: functional, cell-based
Mus musculus [22] = test: In vivo inhibition of PI3Kalpha in BALB/c mouse assessed as increase in plasma glucose level at 40 mg/kg, po measured after 24 hrs; format: functional, organism-based
SNU-16 = test: Antiproliferative activity against human SNU-16 cells assessed as reduction in cell viability incubated for 72 hrs measured after 4 hrs of MTT addition by MTT assay; format: functional, cell-based
AGS = test: Antiproliferative activity against human AGS cells assessed as reduction in cell viability incubated for 72 hrs measured after 4 hrs of MTT addition by MTT assay; format: functional, cell-based
NCI-H460 = test: Antiproliferative activity against human NCI-H460 cells assessed as reduction in cell viability incubated for 72 hrs measured after 4 hrs of MTT addition by MTT assay; format: functional, cell-based
HGC-27 [23] = test: Inhibition of PI3K signalling in human HGC-27 cells assessed as reduction in AKT S473 phosphorylation incubated for 3 hrs by Western blot analysis; format: cell-based; conditions: dose 20-1000 nM
[24] = Half life in ICR mouse at 4 mg/kg, iv measured upto 24 hrs by LC-MS/MS analysis; format: ADME, organism-based; conditions: in vivo
[25] = biological target: Phosphatidylinositol 4,5-bisphosphate 3-kinase catalytic subunit gamma isoform (Homo sapiens, UniProt P48736); test: Inhibition of recombinant human GST-tagged PI3Kgamma (468 to 1203 residues) expressed in insect expression system using PIP2 as substrate by ADP-Glo reagent based assay
Sequence of Phosphatidylinositol 4,5-bisphosphate 3-kinase catalytic subunit gamma isoform (P48736 whole entry, the tested form may be a part, canonical isoform): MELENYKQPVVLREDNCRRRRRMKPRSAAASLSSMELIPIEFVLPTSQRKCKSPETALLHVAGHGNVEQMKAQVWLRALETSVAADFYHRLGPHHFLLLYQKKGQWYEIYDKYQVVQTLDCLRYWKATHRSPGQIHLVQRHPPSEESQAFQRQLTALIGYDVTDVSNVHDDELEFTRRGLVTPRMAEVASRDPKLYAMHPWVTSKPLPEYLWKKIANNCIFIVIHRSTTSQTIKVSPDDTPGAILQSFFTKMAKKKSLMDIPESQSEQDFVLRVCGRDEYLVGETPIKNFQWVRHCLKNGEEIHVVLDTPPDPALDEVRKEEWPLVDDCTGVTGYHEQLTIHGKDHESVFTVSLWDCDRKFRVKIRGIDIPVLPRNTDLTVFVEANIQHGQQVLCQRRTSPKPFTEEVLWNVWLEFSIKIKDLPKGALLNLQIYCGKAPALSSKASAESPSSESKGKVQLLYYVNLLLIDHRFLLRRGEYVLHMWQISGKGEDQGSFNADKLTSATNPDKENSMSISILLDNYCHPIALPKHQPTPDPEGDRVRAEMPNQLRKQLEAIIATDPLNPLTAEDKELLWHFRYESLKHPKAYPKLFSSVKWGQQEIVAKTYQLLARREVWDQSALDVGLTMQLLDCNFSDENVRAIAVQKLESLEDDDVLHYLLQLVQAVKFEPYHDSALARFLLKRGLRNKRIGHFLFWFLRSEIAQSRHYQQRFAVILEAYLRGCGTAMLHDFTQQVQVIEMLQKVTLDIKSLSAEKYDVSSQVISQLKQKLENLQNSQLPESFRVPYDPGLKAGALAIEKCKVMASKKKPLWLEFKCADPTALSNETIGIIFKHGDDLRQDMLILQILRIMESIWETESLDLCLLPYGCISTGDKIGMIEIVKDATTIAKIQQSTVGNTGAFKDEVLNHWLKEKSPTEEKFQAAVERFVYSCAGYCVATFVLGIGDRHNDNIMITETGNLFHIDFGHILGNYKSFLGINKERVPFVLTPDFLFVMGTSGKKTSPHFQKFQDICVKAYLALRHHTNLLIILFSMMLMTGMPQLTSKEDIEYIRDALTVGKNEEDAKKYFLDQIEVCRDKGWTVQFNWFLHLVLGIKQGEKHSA

Sequence of Phosphatidylinositol 4,5-bisphosphate 3-kinase catalytic subunit alpha isoform (P42336 whole entry, canonical isoform): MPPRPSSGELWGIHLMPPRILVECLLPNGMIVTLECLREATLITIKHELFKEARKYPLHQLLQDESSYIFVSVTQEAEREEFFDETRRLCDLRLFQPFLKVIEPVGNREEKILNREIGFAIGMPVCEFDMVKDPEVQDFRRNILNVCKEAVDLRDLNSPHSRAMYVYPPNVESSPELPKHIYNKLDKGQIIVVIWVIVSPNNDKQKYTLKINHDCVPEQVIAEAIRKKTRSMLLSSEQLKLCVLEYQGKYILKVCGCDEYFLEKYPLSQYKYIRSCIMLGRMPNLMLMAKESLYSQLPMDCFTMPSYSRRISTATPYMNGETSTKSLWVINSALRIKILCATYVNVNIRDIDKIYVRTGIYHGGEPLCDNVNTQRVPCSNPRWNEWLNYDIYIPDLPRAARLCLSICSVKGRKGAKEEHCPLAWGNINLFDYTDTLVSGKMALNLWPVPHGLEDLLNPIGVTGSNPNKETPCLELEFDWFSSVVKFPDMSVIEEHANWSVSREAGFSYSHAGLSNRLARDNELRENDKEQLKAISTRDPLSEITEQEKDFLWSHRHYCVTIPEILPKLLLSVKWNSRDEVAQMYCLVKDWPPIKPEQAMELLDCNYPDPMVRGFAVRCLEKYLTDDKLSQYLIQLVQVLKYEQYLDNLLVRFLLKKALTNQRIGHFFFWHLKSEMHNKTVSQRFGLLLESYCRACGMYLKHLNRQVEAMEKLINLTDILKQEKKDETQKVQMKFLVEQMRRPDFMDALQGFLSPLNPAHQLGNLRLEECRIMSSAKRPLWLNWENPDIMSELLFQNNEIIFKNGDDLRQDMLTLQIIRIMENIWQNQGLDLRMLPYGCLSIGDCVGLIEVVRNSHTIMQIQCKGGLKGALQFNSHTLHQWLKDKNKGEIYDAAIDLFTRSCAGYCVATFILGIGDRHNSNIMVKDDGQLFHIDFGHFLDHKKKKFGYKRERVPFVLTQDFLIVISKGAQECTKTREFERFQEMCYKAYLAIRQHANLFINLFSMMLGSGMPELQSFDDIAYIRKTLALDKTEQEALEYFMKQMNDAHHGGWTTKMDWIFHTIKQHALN
Sequence of Phosphatidylinositol 4,5-bisphosphate 3-kinase catalytic subunit delta isoform (O00329 whole entry, canonical isoform): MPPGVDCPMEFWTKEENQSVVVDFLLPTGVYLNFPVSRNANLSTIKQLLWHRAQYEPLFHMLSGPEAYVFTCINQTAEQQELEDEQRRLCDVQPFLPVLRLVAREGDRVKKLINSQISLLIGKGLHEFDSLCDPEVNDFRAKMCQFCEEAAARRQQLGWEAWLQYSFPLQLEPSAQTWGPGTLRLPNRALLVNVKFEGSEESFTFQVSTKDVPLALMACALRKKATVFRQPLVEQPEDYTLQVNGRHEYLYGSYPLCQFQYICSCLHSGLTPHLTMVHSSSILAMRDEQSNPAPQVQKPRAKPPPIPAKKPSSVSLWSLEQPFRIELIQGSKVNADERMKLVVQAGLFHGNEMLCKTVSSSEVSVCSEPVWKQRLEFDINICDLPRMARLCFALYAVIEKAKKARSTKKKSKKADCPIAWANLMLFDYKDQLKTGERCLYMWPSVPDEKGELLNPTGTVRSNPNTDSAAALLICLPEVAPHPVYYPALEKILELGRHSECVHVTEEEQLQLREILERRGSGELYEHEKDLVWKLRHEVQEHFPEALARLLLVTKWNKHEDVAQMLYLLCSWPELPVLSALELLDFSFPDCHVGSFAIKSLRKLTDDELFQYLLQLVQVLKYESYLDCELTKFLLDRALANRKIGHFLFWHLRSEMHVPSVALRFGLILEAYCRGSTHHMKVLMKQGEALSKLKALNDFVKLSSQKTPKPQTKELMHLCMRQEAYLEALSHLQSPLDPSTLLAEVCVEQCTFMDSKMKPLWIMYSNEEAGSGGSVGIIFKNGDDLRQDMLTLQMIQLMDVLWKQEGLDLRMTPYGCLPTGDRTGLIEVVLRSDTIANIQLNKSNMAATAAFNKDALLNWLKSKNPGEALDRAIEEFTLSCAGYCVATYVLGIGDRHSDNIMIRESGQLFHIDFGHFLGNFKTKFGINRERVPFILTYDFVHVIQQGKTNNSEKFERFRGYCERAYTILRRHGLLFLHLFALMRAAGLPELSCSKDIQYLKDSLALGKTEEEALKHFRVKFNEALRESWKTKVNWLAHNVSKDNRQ
Sequence of Phosphatidylinositol 4,5-bisphosphate 3-kinase catalytic subunit beta isoform (P42338 whole entry, canonical isoform): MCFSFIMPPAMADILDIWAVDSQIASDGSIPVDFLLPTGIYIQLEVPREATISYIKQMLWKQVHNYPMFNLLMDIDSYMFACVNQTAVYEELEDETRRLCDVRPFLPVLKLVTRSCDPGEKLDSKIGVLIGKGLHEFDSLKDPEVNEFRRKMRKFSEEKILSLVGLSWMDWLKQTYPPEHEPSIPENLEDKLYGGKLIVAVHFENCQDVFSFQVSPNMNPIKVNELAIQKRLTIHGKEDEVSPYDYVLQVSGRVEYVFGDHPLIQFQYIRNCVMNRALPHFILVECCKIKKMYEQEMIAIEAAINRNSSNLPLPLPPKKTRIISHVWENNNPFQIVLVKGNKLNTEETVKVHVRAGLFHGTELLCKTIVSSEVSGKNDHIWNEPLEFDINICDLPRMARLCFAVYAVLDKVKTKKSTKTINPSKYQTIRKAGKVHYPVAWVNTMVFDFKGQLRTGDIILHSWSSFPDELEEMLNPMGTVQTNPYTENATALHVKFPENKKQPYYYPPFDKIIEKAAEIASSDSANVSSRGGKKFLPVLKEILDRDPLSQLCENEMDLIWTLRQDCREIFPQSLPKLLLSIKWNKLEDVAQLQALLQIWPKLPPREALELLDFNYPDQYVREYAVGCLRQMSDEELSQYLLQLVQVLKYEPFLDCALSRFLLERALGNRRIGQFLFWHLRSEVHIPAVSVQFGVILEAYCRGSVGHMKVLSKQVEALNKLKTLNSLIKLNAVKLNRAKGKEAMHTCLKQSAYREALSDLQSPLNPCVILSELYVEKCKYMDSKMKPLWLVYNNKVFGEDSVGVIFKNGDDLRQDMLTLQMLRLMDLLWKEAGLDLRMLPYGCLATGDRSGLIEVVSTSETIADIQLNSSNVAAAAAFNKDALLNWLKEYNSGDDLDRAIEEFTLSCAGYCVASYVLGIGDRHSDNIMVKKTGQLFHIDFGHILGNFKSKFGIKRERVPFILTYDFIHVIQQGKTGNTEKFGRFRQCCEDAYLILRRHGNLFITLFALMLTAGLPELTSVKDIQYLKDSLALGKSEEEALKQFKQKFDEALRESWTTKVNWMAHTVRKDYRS

IC50 [1] [nM]	IC50 (SGC-7901) [nM]	IC50 (A549) [nM]	IC50 [2] [nM]	Vd [3] [L/kg]	IC50 (MGC-803) [nM]	clearance [6] [mL/min/kg]	Papp A→B [8] [×10⁻⁶ cm/s]	IC50 (NCI-H358) [nM]	solubility kinetic [12] [µM]	IC50 [13] [nM]	Structure (SMILES)	IC50 (MG-63) [nM]	inhibition (HGC-27 [4])	Activity (HGC-27 [5])	viability at 0.5 µM (HGC-27 [7]) [%]	inhibition (Mus musculus [9])	inhibition (HGC-27 [10])	IC50 (HGC-27 [11]) [nM]	Activity (HGC-27 [14]) [%]	Activity (HGC-27 [15]) [%]	further results
50	5200	7800	3.9	0.537	6800	4.6	21.1	5200	10.3 (≈ 5.35 µg/mL)	7.2	COc1ncc(-c2cc3c(N4CCOCC4)ncnc3s2)cc1NS(=O)(=O)c1ccc(F)cc1F	7000	Dose-dependent effect	Dose-dependent effect	75.1	Active	Dose-dependent effect	390	0.26	15.8	inhibition in vivo at 40 mg/kg (HGC-27 [16]): 58.2%; IC50 (MKN-45): 2600 nM; inhibition (HGC-27 [17]): Active; IC50 (NCI-H23): 4400 nM; half-life [18]: 13.7 h; inhibition (Mus musculus [19]): Active; IC50 [20]: 4700 nM; bioavailability [21]: 99.5%; IC50 (SNU-638): 2400 nM; inhibition (Mus musculus [22]): inactive; IC50 (SNU-16): 5800 nM; IC50 (AGS): 3900 nM; IC50 (NCI-H460): 4000 nM; inhibition (HGC-27 [23]): Dose-dependent effect; half-life [24]: 1.36 h; IC50 [25]: 12 nM
5.3	640	620	1	0.513	670	2.65	21.4	1000	6.31 (≈ 3.28 µg/mL)	1.7	COc1ncc(-c2nc3c(N4CCOCC4)ncnc3s2)cc1NS(=O)(=O)c1ccc(F)cc1F	360	Dose-dependent effect	Dose-dependent effect	77.7	Active	Dose-dependent effect	40	0.23	17.6	inhibition in vivo at 40 mg/kg (HGC-27 [16]): 88.7%; IC50 (MKN-45): 1100 nM; inhibition (HGC-27 [17]): Active; IC50 (NCI-H23): 580 nM; half-life [18]: 6.3 h; inhibition (Mus musculus [19]): Active; IC50 [20]: 930 nM; bioavailability [21]: 54.5%; IC50 (SNU-638): 690 nM; inhibition (Mus musculus [22]): inactive; IC50 (SNU-16): 3100 nM; IC50 (AGS): 720 nM; IC50 (NCI-H460): 490 nM; inhibition (HGC-27 [23]): Dose-dependent effect; half-life [24]: 2.25 h; IC50 [25]: 2 nM
